Molecular target: T1, Babesia orientalis lactate dehydrogenase (BoLDH) (Babesia orientalis, UniProt A0A8X6EH37)
T1 construct: full-length ORF (330 residues), N-terminal His6 tag, recombinant rBoLDH
T1 sequence (A0A8X6EH37 1-330): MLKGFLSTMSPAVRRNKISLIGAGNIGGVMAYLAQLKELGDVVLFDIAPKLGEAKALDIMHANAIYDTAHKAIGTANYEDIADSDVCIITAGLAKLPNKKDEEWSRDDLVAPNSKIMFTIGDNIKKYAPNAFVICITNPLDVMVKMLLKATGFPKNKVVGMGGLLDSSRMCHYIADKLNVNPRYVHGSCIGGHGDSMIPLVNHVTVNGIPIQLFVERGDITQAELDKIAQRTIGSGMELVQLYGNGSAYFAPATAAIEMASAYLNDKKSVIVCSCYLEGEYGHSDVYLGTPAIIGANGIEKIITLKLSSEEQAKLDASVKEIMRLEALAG
Assay: Michaelis-Menten inhibition kinetics, lactate to pyruvate, NADH absorbance at […] nm, […] gossypol
Format: biochemical

SMILES: Cc1cc2c(C(C)C)c(O)c(O)c(C=O)c2c(O)c1-c1c(C)cc2c(C(C)C)c(O)c(O)c(C=O)c2c1O [gossypol]
- Ki: 4.24 ± 0.25 µM

— PMC8766848, “The Structural Basis of Babesia orientalis Lactate Dehydrogenase” (Frontiers in Cellular and Infection Microbiology, 2022)
